According to US12370235B2, “Synthetic, non-natural antimicrobial peptides inspired by Staphylococcus auricularis delta toxin” (University of Saskatchewan, priority 2021, dated 2025):
Ends that are not written are not given here.

Experiments:
[1] = tested on: S. aureus ATCC BAA-41 (MRSA SCCmec type II); experiment: MIC, broth dilution; format: cell-based, Staphylococcus aureus; details: Table 5; STIP3 variants, highest concentration 100 μg/mL
Procedure, shortened: (§1)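 MIC defined as the lowest peptide level giving no growth after overnight standing incubation at 37° C. Bacteria at OD 6×10^−4 in cation-adjusted MH broth met 2-fold serial peptide dilutions; peptide purity 95%.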

[2] = tested on: S. aureus ATCC BAA-1683 (MRSA SCCmec type IV); experiment: MIC, broth dilution; format: cell-based, Staphylococcus aureus; details: Table 5; STIP3 variants, highest concentration 100 μg/mL
Procedure, shortened: as §1

[3] = tested on: S. aureus ATCC BAA-42 (MRSA SCCmec type VI); experiment: MIC, broth dilution; format: cell-based, Staphylococcus aureus; details: Table 5; STIP3 variants, highest concentration 100 μg/mL
Procedure, shortened: as §1

[4] = tested on: S. aureus ATCC 33592 (MRSA SCCmec type III); experiment: MIC, broth dilution; format: cell-based, Staphylococcus aureus; details: Table 5; STIP3 variants, highest concentration 100 μg/mL
Procedure, shortened: as §1

[5] = tested on: S. aureus ATCC BAA-2094 (MRSA SCCmec type V); experiment: MIC, broth dilution; format: cell-based, Staphylococcus aureus; details: Table 5; STIP3 variants, highest concentration 100 μg/mL
Procedure, shortened: as §1

[6] = tested on: S. aureus ATCC BAA-44 (MRSA SCCmec type I); experiment: MIC, broth dilution; format: cell-based, Staphylococcus aureus; details: Table 5; STIP3 variants, highest concentration 100 μg/mL
Procedure, shortened: as §1

[7] = tested on: S. aureus bovid isolate (RDM-1); experiment: MIC, broth dilution; format: cell-based, Staphylococcus aureus; details: clinical isolate
Procedure, shortened: as §1

S. aureus ATCC 29213 = experiment: MIC, broth dilution; format: cell-based, Staphylococcus aureus; details: Table 5; STIP3 variants, highest concentration 100 μg/mL
Procedure, shortened: as §1

[8] = tested on: S. aureus ATCC BAA-2313 (MRSA SCCmec type XI); experiment: MIC, broth dilution; format: cell-based, Staphylococcus aureus; details: Table 5; STIP3 variants, highest concentration 100 μg/mL
Procedure, shortened: as §1

MRSA ATCC 33592 = experiment: SYTOX Green membrane integrity assay; format: cell-based, Staphylococcus aureus; details: one fourth to four-fold the MIC
Protocol: Membrane disruption and depolarization are commonly reported mechanisms of AMP action. Two indirect assays that rely on fluorescent dyes were employed to assess the interaction of STIP3-29 and D-STIP3-29 with bacterial membranes. First, changes to SYTOX fluorescence was measured when MRSA ATCC 33592 was treated with increasing peptide concentrations ranging from one fourth to four-fold the MIC. […] Next, DiSC3(5), a cationic dye that binds to polarized membranes was used to report on possible depolarization related to AMP treatment. […] Thus, without wishing to be bound by theory, a more conservative explanation of the results is that the cationic peptides increase membrane permeability to SYTOX and that the like-charge of the AMPs to the reporter of polarization may confound the interpretation of the indirect assay. For example, the AMPs may simply displace the self-quenching DiSC3(5) molecules from the membrane surface without causing depolarization.

Streptococcus canis = experiment: MIC, broth dilution; format: cell-based; details: clinical isolate
Protocol: (§2) MIC determination. MICs were measured using peptides with 95% purity. For bacterial studies, cation-adjusted Mueller Hinton (MH) broth was used as the growth medium whereas Yeast Peptone Dextrose (YPD; 10 g/L yeast extract, 20 g/L peptone, 20 g/L dextrose) was used for Candida spp. and other yeast. Microorganisms were diluted to an optical density of […] in MH or YPD broth and a 180 μl volume was mixed with 20 μl of peptide arrayed as a 2-fold dilution series in a flat-bottom 96-well microtitre plate. A control was performed using 20 μl of sterile water. Plates were incubated as standing cultures overnight at 37° C.
(§3) Determination of minimum inhibitory concentrations. The MICs were measured for bioactive peptides identified from the initial screen. For bacterial studies, cation-adjusted Mueller Hinton (MH) broth was used as the growth medium whereas YPD was used for C. albicans. Bacterial cultures were diluted to a OD value of 6×10^−4 in MH broth and a 180 μl volume was mixed with 20 μl of peptide arrayed as 2-fold dilution series in a 96-well plate. For the positive control, 20 μl of sterile water was used. Plates were incubated as standing cultures overnight at 37° C. The lowest peptide concentration that resulted no observed microbial growth after an overnight treatment was defined as the MIC.

S. auricularis = experiment: MIC, broth dilution; format: cell-based; details: isolate from a healthy dairy cow
Protocol: as §2, §3

S. epidermidis = experiment: MIC, broth dilution; format: cell-based; details: isolate from a healthy dairy cow
Protocol: as §2, §3

Mycoplasma bovis = experiment: MIC, broth dilution; format: cell-based
Protocol: as §2, §3

Klebsiella pneumoniae = experiment: MIC, broth dilution; format: cell-based
Protocol: as §2, §3

[9] = tested on: Streptococcus zooepidermicus; experiment: MIC, broth dilution; format: cell-based; details: clinical isolate
Protocol: as §2, §3

S. equorum = experiment: MIC, broth dilution; format: cell-based; details: isolate from a healthy dairy cow
Protocol: as §2, §3

[10] = tested on: Pseudomonas aeruginosa ATCC 27853; experiment: MIC, broth dilution; format: cell-based
Protocol: as §2, §3

S. scuri = experiment: MIC, broth dilution; format: cell-based; details: isolate from a healthy dairy cow
Protocol: as §2, §3

Pasteurella multocida = experiment: MIC, broth dilution; format: cell-based
Protocol: as §2, §3

[11] = tested on: Enterococcus faecalis ATCC 2912; experiment: MIC, broth dilution; format: cell-based
Protocol: as §2, §3

Streptococcus equi = experiment: MIC, broth dilution; format: cell-based; details: clinical isolate
Protocol: as §2, §3

[12] = tested on: Mannheimia haemolytica (clinical, disease-causing isolate); experiment: MIC, broth dilution; format: cell-based; details: Table 7
Protocol: as §2, §3

[13] = tested on: Streptococcus dysagalactiae; experiment: MIC, broth dilution; format: cell-based; details: clinical isolate
Protocol: as §2, §3

Streptococcus agalactiae = experiment: MIC, broth dilution; format: cell-based; details: clinical isolate
Protocol: as §2, §3

3D EpiDerm skin tissues = experiment: Peptide cytotoxicity, 3D EpiDerm skin tissues, alamarBlue; format: cell-based, human; details: 250 μg/mL, 24 h
Protocol: Peptide cytotoxicity. In vitro cytotoxicity was measured using the 3D EpiDerm skin tissues and HeLa Cells using a fluorescent reporter of cell viability, alamarBlue (ThermoFisher Scientific). 3D EpiDerm skin tissues (MatTek EPI-200-AFAB) were transferred to a 12 well plate containing 600 μL of AFAB-assay medium supplemented with 10% v/v alamarBlue. […] HeLa cells were seeded in a 96-well plate (2×10^4 cells/per well) and incubated overnight at 37° C. and 5% CO2 in a humidified incubator to prepare wells at ˜50% confluency of adherent cells. After the incubation, spent DMEM was removed and cells were washed with PBS. alamarBlue-containing medium was prepared by mixing Phenol Red-free DMEM with alamarBlue solution at a 9:1 ratio and a 180 μl volume was added to each well. Cells were treated with peptides varying from 3.25 to 200 μg/mL and then incubated for 24 h. The fluorescence intensities of treated cultures were normalized to values measured for an untreated control group. After the 24 h incubation period, alamarBlue fluorescence was measured at 590 nm upon excitation at 560 nm using Varioskan Lux plate reader (Thermo Scientific) plate reader.

For “TVGGLVKWILKTVKKFA-NH2 [STIP3-29, TVGGLVKWILKTVKKFA-NH2]”, the “MIC S. aureus ATCC BAA 41 (II)” value [1] was 6.25 µg/mL, the “MIC S. aureus ATCC BAA 1683 (IV)” value [2] was 6.25 µg/mL and the “MIC S. aureus ATCC BAA 42 (VI)” value [3] was 6.25 µg/mL. For the same substance, the “MIC S. aureus ATCC 33592 (III)” value [4] was 6.25 µg/mL, the “MIC S. aureus ATCC BAA 2094 (V)” value [5] was 6.25 µg/mL and the “MIC S. aureus ATCC BAA 44 (I)” value [6] was 6.25 µg/mL. The “MIC” value [7] was 6.25 µg/mL, the “MIC S. aureus ATCC 29213” value (S. aureus ATCC 29213) was 12.5 µg/mL and the “MIC S. aureus ATCC BAA 2313 (XI)” value [8] was 6.25 µg/mL. The SYTOX fluorescence change (MRSA ATCC 33592) was “rapid and concentration dependent increase in SYTOX fluorescence”, the “MIC” value (Streptococcus canis) was 6.25 µg/mL and the “MIC” value (S. auricularis) was 1.56 µg/mL. For the same substance, the “MIC” value (S. epidermidis) was 3.13 µg/mL, the “MIC (μg/ml)” value (Mycoplasma bovis) was “> (> indicates no inhibition up to 50 μg/ml)” and the “MIC (μg/ml)” value (Klebsiella pneumoniae) was “> (> indicates no inhibition up to 50 μg/ml)”. The “MIC” value [9] was 3.13 µg/mL, the “MIC” value (S. equorum) was 3.13 µg/mL and the “MIC (μg/ml)” value [10] was “> (> indicates no inhibition up to 50 μg/ml)”. For the same substance, the “MIC” value (S. scuri) was 3.13 µg/mL, the “MIC (μg/ml)” value (Pasteurella multocida) was “> (> indicates no inhibition up to 50 μg/ml)” and the “MIC” value [11] was 12.5 µg/mL. For the same substance, the “MIC” value (Streptococcus equi) was 3.13 µg/mL, the “MIC” value [12] was 6.25 µg/mL and the “MIC” value [13] was 3.13 µg/mL. The “MIC” value (Streptococcus agalactiae) was 3.13 µg/mL and the “indirect measure of tissue health (alamarBlue)” value (3D EpiDerm skin tissues) was “appeared to be unaffected”.
